Measured values: US20060062832A1, “Sanitizing wipes with microbicidal properties cross-reference to related applications” (priority 2004, published 2006)

Legend:
Assay type in all cases: cell-based
[1] = tested on: Staphylococcus aureus ATCC 6538; assay: A.O.A.C. sanitizer and germicidal detergent test; conditions: compositions at listed % w/v; hypochlorite 50 ppm; sanitizer criterion 99.999% in 30 s
Description: (§1) The bacterial cultures were purchased from the American Type Culture Collection (ATCC), (Bethesda, Md.). Escherichia coli and Staphylococcus aureus are used to represent both gram negative and gram-positive bacterial classes. This test is used by the US EPA for to determine compliance for a product to be used as a sanitizing agent. A product that reduces population density of both types of bacteria in 30 s by 99.999% satisfies the requirement as a sanitizing agent.

[2] = tested on: Escherichia coli ATCC 11229; assay: A.O.A.C. sanitizer and germicidal detergent test; conditions: compositions at listed % w/v; hypochlorite 50 ppm; sanitizer criterion 99.999% in 30 s
Description: as §1

[3] = tested on: Pseudomonas aeruginosa ATCC 10145; assay: modified detergent and germicidal sanitizer test of the A.O.A.C.; conditions: P.a. 10145
Procedure: (§2) The efficacy of the sanitizers of Examples I-III were further evaluated with 50 ppm of hypochlorite as a control against Salmonella typhimurium, Listeria monocytogenes, Aeromonas hydrophila, and Pseudomonas aeruginosa essentially by the modified detergent and germicidal sanitizer test of the A.O.A.C. The sanitizers were tested against both natural isolates and the antibiotic resistant strains of Listeria monocytogenes and Salmonella typhimurium. Each of the antibiotic resistant strains was used separately as well as in a composite strain prepared by mixing equal numbers of five different antibiotic resistant strains of Listeria monocytogenes or those of Salmonella typhimurium, respectively.

[4] = tested on: Aeromonas hydrophila ATCC 7965; assay: as above; conditions: A.h. 7965
Procedure: as §2, with “[…],” for “efficacy of the sanitizers of Examples I-III were further evaluated with 50 ppm of hypochlorite as a control against Salmonella typhimurium,”

[5] = tested on: Listeria monocytogenes ATCC 7644; assay: as above; conditions: L.m. 7644
Procedure: as §2, with “[…],” for “efficacy of the sanitizers of Examples I-III were further evaluated with 50 ppm of hypochlorite as a control against Salmonella typhimurium,”

[6] = tested on: Salmonella typhimurium ATCC 7823; assay: as above; set-up: key to Number of surviving bacteria/ml after 30 seconds: Too Numerous To Count; conditions: S.t. 7823
Procedure: as §2

[7] = 30 seconds contact, HOCL = 200 ppm (mark on the cfu cell beside)

Compound: OCl [Hypochlorite]
- % Kill Staph. aureus [1]: >99.999%
- % Kill E. coli [2]: >99.999%
- % Kill after 30 seconds ([3]; 30 seconds contact): >99.999%
- % Kill after 60 seconds ([3]; 60 seconds contact): >99.999%
- % Kill after 30 seconds [4, 7]: >99.999%
- % Kill after 60 seconds ([4]; 60 seconds contact): >99.999%
- % Kill after 30 seconds [5, 7]: >99.999%
- % Kill after 60 seconds ([5]; 60 seconds contact): >99.999%
- Number of surviving bacteria/ml after 30 seconds ([6]; 30 seconds contact, HOCL = 50 ppm): T@, T@
- % Kill after 30 seconds ([6]; 30 seconds contact, HOCL = 50 ppm (mark on the cfu cell beside)): <99.999%
- % Kill after 60 seconds ([6]; 60 seconds contact): >99.999%
